Each compound was assayed against RORc ligand binding domain (Homo sapiens (Human), UniProt P51449) (assay: In vitro RORc Ligand Binding Assay). Conditions: displacement of 6 nM 25-[3H]hydroxycholesterol; 0.6 ug/mL RORc receptor; 3 h at 25° C.
Protocol: In vitro RORc Ligand Binding Assay
This assay was used to determine a compound's potency in inhibiting activity of RORc by determining, Kiapp, IC50, or percent inhibition values.
On day of the assay, 100 uL of 0.05% CHAPS (in deionized H2O) was added to all wells of the GFB Unifilter plate and allowed soak for 1 h. A wash buffer of 50 mM HEPES (pH 7.4), 150 mM NaCl, and 5 mM MgCl2 was prepared to wash the filter plate. To prepare an assay buffer, BSA was added to the wash buffer to reach 0.01% and DTT was added to reach 1 mM.
The 20× compound stocks were diluted in DMSO with Assay Buffer 4-fold to reach 5× the final test concentration in 25% DMSO (10 uL compound+30 uL Assay Buffer). Solutions were mixed by aspiration several times with a pipette set on 50 uL volume. For the assay, 10 uL of 5× compound stock solutions in 25% DMSO were added to the assay plate in duplicate.
For 25-hydroxycholesterol in 25% DMSO/75% Assay Buffer; 10 uL per well was used for NSB samples. Wells for Total Binding and No Receptor sample determination contained 10 uL of 25% DMSO/75% Assay Buffer per well.
Add 20 uL to all wells to reach 6 nM final concentration in the assay.
Stock receptor solution was diluted in assay buffer to obtain 1.5 ug/mL in Assay Buffer. 20 uL was added to all wells. For No Receptor samples, 20 uL Assay Buffer was substituted for receptor solution.
Assay plates were 96-well polypropylene V-bottom plates. 10 uL of 5× compound in 25% DMSO/75% Assay Buffer was added to Test wells. 10 uL of 25% DMSO/75% Assay Buffer was added to Total Binding or No Receptor wells. 10 uL of 5 uM 25-hydroxycholesterol in 25% DMSO/75% Assay Buffer was added to NSB wells. […] 20 uL of 1.5 ug/mL RORc receptor was added to wells (or 40 uL Assay Buffer to No R wells). Following addition to the wells, the plates were incubated 3 h at 25° C.
Using a Packard Filtermate Harvester, the filter plate were washed 4 times following transfer of the incubated samples. Plates were dry-filtered completely (2 h at 50° C. or overnight at room temperature). 50 uL Microscint 0 was added to all wells and read on Topcount protocol Inverted.
Final concentrations were as follows: 50 mM HEPES buffer (pH 7.4); 150 mM NaCl; 1 mM DTT; 5 mM MgCl2; 0.01% BSA; 5% DMSO; 0.6 ug/mL RORc receptor; 6 nM 25-[^3H]hydroxycholesterol. For NSB wells, 1 uM 25-hydroxycholesterol was also present.

Sequence of RORc ligand binding domain (P51449 269-508, species assumed): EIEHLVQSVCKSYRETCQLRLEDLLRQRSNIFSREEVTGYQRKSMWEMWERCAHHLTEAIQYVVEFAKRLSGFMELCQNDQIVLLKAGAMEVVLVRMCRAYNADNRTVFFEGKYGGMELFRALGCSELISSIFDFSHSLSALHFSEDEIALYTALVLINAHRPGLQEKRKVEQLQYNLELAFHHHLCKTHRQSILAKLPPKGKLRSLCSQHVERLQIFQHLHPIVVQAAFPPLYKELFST

IC50 [nM] | SMILES
103 | CC(C)CN(c1cccc(Cl)c1)S(=O)(=O)c1ccc(-c2ccc(S(N)(=O)=O)cc2)cc1 [Compound 14, Biphenyl-4,4′-disulfonic acid 4′-amide 4-[(3-chloro-phenyl)-isobutyl-amide]]
38 | CC(C)CN(c1cccc(Cl)c1)S(=O)(=O)c1ccc(-c2ccc(C(N)=O)cc2)cc1 [Compound 15, 4′-[(3-Chloro-phenyl)-isobutyl-sulfamoyl]-biphenyl-4-carboxylic acid amide]

More lines, now with the values behind:

SMILES | IC50 [nM]
CC(C)CN(c1ccccc1Cl)S(=O)(=O)c1ccc(-c2ccc(C(N)=O)cc2)cc1 [Compound 16, 4′-[(2-Chloro-phenyl)-isobutyl-sulfamoyl]-biphenyl-4-carboxylic acid amide] | 39
CC(C)CN(c1cccc(Cl)c1)S(=O)(=O)c1ccc(Oc2ccc(S(C)(=O)=O)cc2)cc1 [Compound 5, N-(3-Chloro-phenyl)-N-isobutyl-4-(4-mehanesulfonyl-phenoxy)-benzenesulfonamide] | 138
CC(C)CN(Cc1ccccc1)S(=O)(=O)c1ccc(-c2ccc(C(N)=O)cc2)cc1 [Compound 7, 4′-(Benzyl-isobutyl-sulfamoyl)-biphenyl-4-carboxylic acid amide] | 124

Source: patent US9302985B2, “Benzyl sulfonamide derivatives as RORc modulators” (Genentech, Inc., priority 2012, dated 2016)
